Test results taken from patent US20050037923A1, “Herbicidal mixture based on 7-pyrazolybenzoxazoles” (BASF Aktiengesellschaft, priority 2001, published 2005).

Experiments:
ABUTH [1] = experiment: Greenhouse test, post-emergence herbicidal action; assay type: in vivo, velvet leaf; settings: 21 days
Source text: (§1) For the post-emergence treatment, the test plants were first grown to a height of 3 to 20 cm, depending on the plant habit, and only then treated. Here, the herbicidal compositions were suspended or emulsified in water as distribution medium and sprayed using finely distributing nozzles.
(§2) The respective components A and B and/or C were formulated as 10% by weight strength emulsion concentrate and introduced to the spray liquor with the amount of solvent system used for applying the active compound. In the examples, the solvent used was water.
(§3) The test period extended over 21 days. During this time, the plants were tended, and their response to the treatments with active compound was evaluated.
(§4) The evaluation for the damage caused by the chemical compositions was carried out using a scale from 0 to 100%, compared to the untreated control plants. Here, 0 means no damage and 100 means complete destruction of the plants.
(§5) In the examples below, the value E which is to be expected if the activity of the individual active compounds is just additive was calculated using the method of S. R. Colby (1967) “Calculating synergistic and antagonistic responses of herbicide combinations”, Weeds 15, p. 22 ff. E=X+Y—(X·Y/100) where • X=effect in percent using active compound A at an application rate a; • Y=effect in percent using active compound B at an application rate b; • E=expected effect (in %) of A+B at application rates a+b.
(§6) The plants used in the greenhouse experiments were of the following species: […]

AVEFA = experiment: Greenhouse test, post-emergence herbicidal action; assay type: in vivo, wild oat
Source text: as §1, §2, §3, §4, §5, §6

BIDPI [2] = experiment: Greenhouse test, post-emergence herbicidal action; assay type: in vivo, hairy beggarticks
Source text: as §1, §2, §3, §4, §5, §6

BRAPL = experiment: Greenhouse test, post-emergence herbicidal action; assay type: in vivo, alexandergrass
Source text: as §1, §2, §3, §4, §5, §6

COMBE = experiment: Greenhouse test, post-emergence herbicidal action; assay type: in vivo, tropical spiderwort; settings: 21 days
Source text: as §1, §2, §3, §4, §5, §6

MATIN = experiment: Greenhouse test, post-emergence herbicidal action; assay type: in vivo, false chamomille
Source text: as §1, §2, §3, §4, §5, §6

POAAN = experiment: Greenhouse test, post-emergence herbicidal action; assay type: in vivo, annual bluegrass
Source text: as §1, §2, §3, §4, §5, §6

POLPE = experiment: Greenhouse test, post-emergence herbicidal action; assay type: in vivo, ladysthumb
Source text: as §1, §2, §3, §4, §5, §6

SETFA = experiment: Greenhouse test, post-emergence herbicidal action; assay type: in vivo, giant foxtail; settings: 21 days
Source text: as §1, §2, §3, §4, §5, §6

CHEAL = experiment: Greenhouse test, pre-emergence herbicidal action; assay type: in vivo, lambsquarters
Source text: (§7) For the pre-emergence treatment, the test plants were sown is pots 1-2 days later, i.e. prior to germination, the pots were sprayed with the finely distributed herbicidal compositions, which had been suspended in water.
as §2, §3, §4, §5, §6

ECHCG [3] = experiment: Greenhouse test, pre-emergence herbicidal action; assay type: in vivo, barnyardgrass
Source text: as §7, §2, §3, §4, §5, §6

THLAR = experiment: Greenhouse test, pre-emergence herbicidal action; assay type: in vivo, fanweed
Source text: as §7, §2, §3, §4, §5, §6

ECHCG [4] = experiment: Greenhouse test, post-emergence herbicidal action; assay type: in vivo, barnyardgrass
Source text: as §1, §2, §3, §4, §5, §6

GALAP = experiment: Greenhouse test, post-emergence herbicidal action; assay type: in vivo, catchweed bedstraw; settings: 21 days
Source text: as §1, §2, §3, §4, §5, §6

SETVI = experiment: Greenhouse test, post-emergence herbicidal action; assay type: in vivo, green foxtail
Source text: as §1, §2, §3, §4, §5, §6

VERSS = experiment: Greenhouse test, post-emergence herbicidal action; assay type: in vivo, speadwell
Source text: as §1, §2, §3, §4, §5, §6

ABUTH [5] = experiment: Greenhouse test, pre-emergence herbicidal action; assay type: in vivo, velvet leaf
Source text: as §7, §2, §3, §4, §5, §6

BIDPI [6] = experiment: Greenhouse test, pre-emergence herbicidal action; assay type: in vivo, hairy beggarticks
Source text: as §7, §2, §3, §4, §5, §6

SORHA = experiment: Greenhouse test, pre-emergence herbicidal action; assay type: in vivo, johnsongrass
Source text: as §7, §2, §3, §4, §5, §6

crop plants = experiment: Safener action, pre-emergence, damage to crop plants; assay type: in vivo; settings: 21 days
Source text: as §7, §2, §4
As in the example above, test plants were grown, treated with the mixture according to the invention by the Pre-emergence method and, after a test period of 21 days, evaluated using a scale from 0 to 100% damage. The test plants used were crop plants.
A safener action is present if the damage to the crop plant caused by using a mixture according to the invention which comprises a safener C) is less than the damage caused when active compound A or active compounds A and B are used without safener.

[7] = application rate 1.95 g/ha, 21 days
[8] = application rate 3.91 g/ha, 21 days
[9] = application rate 1.95 g/ha (Example 28)
[10] = application rate 3.91 g/ha (Example 28)
[11] = application rate 0.98 g/ha (Example 24)
[12] = application rate 1.95 g/ha (Example 24)
[13] = application rate 62.5 g/ha (Example 23)

CCc1nc2c(Cl)cc(F)c(-c3nn(C)c(OC(F)F)c3Cl)c2o1 [I.9]
Herbicidal action against ABUTH, Found (ABUTH [1]; application rate 0.49 g/ha): 0% | Herbicidal action against ABUTH, Found (ABUTH [1]; application rate 0.98 g/ha): 70% | Herbicidal action against AVEFA, Found (AVEFA; application rate 1.95 g/ha (Example 15)): 10% | Herbicidal action against AVEFA, Found (AVEFA; [7]): 10% | Herbicidal action against AVEFA, Found (AVEFA; application rate 3.91 g/ha (Example 15)): 20% | Herbicidal action against BIDPI, Found (BIDPI [2]; [7]): 0% | Herbicidal action against BIDPI, Found (BIDPI [2]; [8]): 40% | Herbicidal action against BRAPL, Found (BRAPL; application rate 3.91 g/ha (Example 17)): 65% | Herbicidal action against BRAPL, Found (BRAPL; application rate 7.81 g/ha (Example 17)): 85% | Herbicidal action against COMBE, Found (COMBE; application rate 0.98 g/ha): 10% | Herbicidal action against COMBE, Found (COMBE; application rate 1.95 g/ha): 10% | Herbicidal action against MATIN, Found (MATIN; application rate 1.95 g/ha): 20% | Herbicidal action against MATIN, Found (MATIN; application rate 3.91 g/ha): 20% | Herbicidal action against POAAN, Found (POAAN; application rate 1.95 g/ha): 10% | Herbicidal action against POAAN, Found (POAAN; application rate 3.91 g/ha): 10% | Herbicidal action against POLPE, Found (POLPE; application rate 0.49 g/ha, 21 days): 5% | Herbicidal action against POLPE, Found (POLPE; application rate 0.98 g/ha, 21 days): 10% | Herbicidal action against POLPE, Found (POLPE; [7]): 50% | Herbicidal action against SETFA, Found (SETFA; application rate 1.95 g/ha): 45% | Herbicidal action against CHEAL, Found (CHEAL; application rate 7.81 g/ha): 75% | Herbicidal action against CHEAL, Found (CHEAL; application rate 15.63 g/ha): 75% | Herbicidal action against ECHCG, Found (ECHCG [3]; application rate 7.81 g/ha): 10% | Herbicidal action against ECHCG, Found (ECHCG [3]; application rate 15.63 g/ha): 35% | Herbicidal action against THLAR, Found (THLAR; application rate 15.63 g/ha): 80% | Herbicidal action against THLAR, Found (THLAR; application rate 31.25 g/ha): 80%

CCc1nc2c(Cl)cc(Cl)c(-c3nn(C)c(OC(F)F)c3Br)c2o1 [I.12]
Herbicidal action against AVEFA, Found (AVEFA; application rate 1.95 g/ha): 40% | Herbicidal action against AVEFA, Found (AVEFA; application rate 1.95 g/ha (Example 16)): 20% | Herbicidal action against AVEFA, Found (AVEFA; [9]): 20% | Herbicidal action against AVEFA, Found (AVEFA; [7]): 20% | Herbicidal action against AVEFA, Found (AVEFA; application rate 3.91 g/ha): 40% | Herbicidal action against AVEFA, Found (AVEFA; application rate 3.91 g/ha (Example 16)): 30% | Herbicidal action against AVEFA, Found (AVEFA; [10]): 20% | Herbicidal action against AVEFA, Found (AVEFA; [8]): 30% | Herbicidal action against BIDPI, Found (BIDPI [2]; application rate 1.95 g/ha): 65% | Herbicidal action against BIDPI, Found (BIDPI [2]; application rate 3.91 g/ha): 65% | Herbicidal action against BRAPL, Found (BRAPL; [9]): 50% | Herbicidal action against BRAPL, Found (BRAPL; application rate 3.91 g/ha (Example 18)): 60% | Herbicidal action against BRAPL, Found (BRAPL; [10]): 50% | Herbicidal action against BRAPL, Found (BRAPL; application rate 7.81 g/ha (Example 18)): 75% | Herbicidal action against ECHCG, Found (ECHCG [4]; application rate 0.49 g/ha): 0% | Herbicidal action against ECHCG, Found (ECHCG [4]; application rate 0.98 g/ha): 0% | Herbicidal action against ECHCG, Found (ECHCG [4]; [11]): 0% | Herbicidal action against ECHCG, Found (ECHCG [4]; [12]): 0% | Herbicidal action against ECHCG, Found (ECHCG [4]; [7]): 50% | Herbicidal action against ECHCG, Found (ECHCG [4]; [8]): 50% | Herbicidal action against GALAP, Found (GALAP; application rate 0.49 g/ha): 15% | Herbicidal action against GALAP, Found (GALAP; application rate 0.98 g/ha): 15% | Herbicidal action against POLPE, Found (POLPE; application rate 0.49 g/ha): 15% | Herbicidal action against POLPE, Found (POLPE; application rate 0.98 g/ha): 15% | Herbicidal action against POLPE, Found (POLPE; [11]): 15% | Herbicidal action against POLPE, Found (POLPE; [12]): 60% | Herbicidal action against POLPE, Found (POLPE; [7]): 60% | Herbicidal action against POLPE, Found (POLPE; [8]): 65% | Herbicidal action against SETFA, Found (SETFA; application rate 1.95 g/ha): 50% | Herbicidal action against SETFA, Found (SETFA; application rate 3.91 g/ha): 65% | Herbicidal action against SETVI, Found (SETVI; application rate 0.98 g/ha): 40% | Herbicidal action against SETVI, Found (SETVI; application rate 1.95 g/ha): 50% | Herbicidal action against VERSS, Found (VERSS; application rate 0.49 g/ha): 0% | Herbicidal action against VERSS, Found (VERSS; application rate 0.98 g/ha): 50% | Herbicidal action against ABUTH, Found (ABUTH [5]; application rate 62.5 g/ha): 60% | Herbicidal action against ABUTH, Found (ABUTH [5]; application rate 125 g/ha): 60% | Herbicidal action against BIDPI, Found (BIDPI [6]; application rate 62.5 g/ha): 30% | Herbicidal action against BIDPI, Found (BIDPI [6]; application rate 125 g/ha): 30% | Herbicidal action against ECHCG, Found (ECHCG [3]; application rate 31.25 g/ha): 0% | Herbicidal action against ECHCG, Found (ECHCG [3]; [13]): 0% | Herbicidal action against SORHA, Found (SORHA; application rate 31.25 g/ha): 30% | Herbicidal action against SORHA, Found (SORHA; application rate 62.5 g/ha): 40% | Damage to the crop plant corn (ZEAMX), cultivar Magister (crop plants; application rate 62.5 g/ha): 38% | Damage to the crop plant corn (ZEAMX), cultivar P3751 (crop plants; application rate 62.5 g/ha): 28% | Damage to the crop plant corn (ZEAMX), cultivar Magister (crop plants; application rate 125 g/ha): 35% | Damage to the crop plant corn (ZEAMX), cultivar P3751 (crop plants; application rate 125 g/ha): 35%

COC[C@H](C)N(C(=O)CCl)c1c(C)csc1C [dimethenamide-P]
Herbicidal action against CHEAL, Found (CHEAL; application rate 62.5 g/ha): 10% | Herbicidal action against ECHCG, Found (ECHCG [3]; application rate 62.5 g/ha (Example 22)): 85% | Herbicidal action against ECHCG, Found (ECHCG [3]; [13]): 85% | Herbicidal action against SORHA, Found (SORHA; application rate 62.5 g/ha): 50%
